Data on 47 compounds can be found in patent US12427146B2, “C-terminal SRC kinase inhibitors” (INVENTISBIO CO., LTD., priority 2018, dated 2025).

In one test the target is LCK protein (Homo sapiens (Human), UniProt P06239). Briefly: LCK Inhibition Assay. The format is biochemical. A digest of the protocol:
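Recombinant LCK (0.50 nM) preincubated 30 min at RT with compound and FLPeptide4 (2 μM) in 50 mM HEPES pH 7.5, 10 mM MgCl2, Brij-35, DTT, BSA; reaction started with ATP (400 μM solution added), run 90 min at 25 °C, EDTA-stopped. Phospho/non-phospho peptide separated by mobility shift; IC50 from % inhibition of conversion, 11-point 1:3 series.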

In another test the target is CSK protein (Homo sapiens (Human), UniProt P41240). Briefly: CSK Inhibition Assay. The format is biochemical. A digest of the protocol:
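Compounds, 11-point 1:3 dilutions in DMSO, were preincubated 30 min at RT with CSK and fluorescent peptide substrate, then the reaction was started with ATP (4 μM solution) and run 90 min at 25 °C before EDTA stop. Phospho-peptide conversion was read by mobility-shift separation (Caliper EZ Reader II) and converted to % inhibition for IC50.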

CSK protein, sequence (P41240 whole entry): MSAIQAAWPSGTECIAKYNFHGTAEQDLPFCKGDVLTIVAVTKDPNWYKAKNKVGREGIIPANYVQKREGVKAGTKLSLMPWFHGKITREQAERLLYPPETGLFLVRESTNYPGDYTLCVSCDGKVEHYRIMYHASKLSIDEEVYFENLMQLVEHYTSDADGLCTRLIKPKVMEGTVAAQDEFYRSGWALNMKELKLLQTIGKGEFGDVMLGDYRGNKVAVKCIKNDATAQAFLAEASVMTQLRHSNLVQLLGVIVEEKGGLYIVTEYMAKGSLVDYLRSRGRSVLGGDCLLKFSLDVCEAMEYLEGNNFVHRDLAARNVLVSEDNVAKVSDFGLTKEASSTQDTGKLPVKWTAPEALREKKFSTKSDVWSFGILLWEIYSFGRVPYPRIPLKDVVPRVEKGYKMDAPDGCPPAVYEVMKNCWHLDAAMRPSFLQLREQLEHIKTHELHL
LCK protein, sequence (P06239 whole entry): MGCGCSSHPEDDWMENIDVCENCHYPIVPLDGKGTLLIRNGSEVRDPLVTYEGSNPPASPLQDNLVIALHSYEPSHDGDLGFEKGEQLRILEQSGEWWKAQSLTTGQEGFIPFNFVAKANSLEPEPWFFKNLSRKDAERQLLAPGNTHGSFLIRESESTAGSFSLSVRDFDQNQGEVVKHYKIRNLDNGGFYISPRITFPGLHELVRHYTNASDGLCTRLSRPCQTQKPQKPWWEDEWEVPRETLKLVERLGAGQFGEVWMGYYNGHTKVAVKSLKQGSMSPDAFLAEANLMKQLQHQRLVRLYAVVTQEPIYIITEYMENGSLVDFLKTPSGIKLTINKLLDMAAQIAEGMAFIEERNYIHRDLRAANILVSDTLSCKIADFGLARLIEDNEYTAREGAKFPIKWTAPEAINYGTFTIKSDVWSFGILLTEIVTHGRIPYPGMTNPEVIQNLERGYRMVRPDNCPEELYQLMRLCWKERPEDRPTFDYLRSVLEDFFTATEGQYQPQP

What is called IC50 is the point on the concentration scale where inhibition reaches its midpoint. A higher IC50 goes with weaker potency in that assay. Take `Cc1ncc(-c2nc(-c3cccc(NS(=O)(=O)c4c(F)ccc(C)c4F)c3F)c(-c3ccnc(NCCO)n3)s2)cn1` [Compound 155]: the IC50 at LCK protein was > 1000 nM; against CSK protein it was 16.6 nM.
In the case of `Cc1ncc(-c2nc(-c3cccc(NS(=O)(=O)c4c(F)ccc(C)c4F)c3F)c(-c3ccnc(NC4CC4)n3)s2)cn1` [Compound 156], the IC50 at LCK protein is > 1000 nM; on CSK protein it was 9.3 nM.
For `CNc1nccc(-c2sc(N(C)C)nc2-c2cccc(NS(=O)(=O)c3c(F)cccc3F)c2F)n1` [Compound 157], in that order: > 1000 nM and 25.8 nM.
Turning to `COc1ccn2c(-c3ccnc(NC4CC4)n3)c(-c3cccc(NS(=O)(=O)c4c(Cl)cccc4Cl)c3F)nc2c1` [Compound 158], the IC50 against LCK protein is > 1000 nM; against CSK protein, 170 nM.
For `COc1ccn2c(-c3ccnc(NCCO)n3)c(-c3cccc(NS(=O)(=O)c4c(Cl)cccc4Cl)c3F)nc2c1` [Compound 159], in that order: > 1000 nM and 28.4 nM.
For `COc1ccn2c(-c3ccnc(NC4CC4)n3)c(-c3cccc(NS(=O)(=O)c4c(Cl)ccc(C)c4Cl)c3F)nc2c1` [Compound 160], in that order: > 1000 nM and 112 nM.
For `CNc1nccc(-c2sc(N3CCCCC3)nc2-c2cccc(NS(=O)(=O)c3c(F)ccc(C)c3F)c2F)n1` [Compound 161], in that order: > 1000 nM and 10.1 nM.
With `CNc1nccc(-c2sc(N3CCC(F)(F)C3)nc2-c2cccc(NS(=O)(=O)c3c(F)cccc3F)c2F)n1` [Compound 162], the IC50 was 100 to 1000 nM at LCK protein and 6.4 nM against CSK protein.
For `O=S(=O)(Nc1cccc(-c2nc(N3CCCCC3)sc2-c2ccnc(NC3CC3)n2)c1F)c1c(F)cccc1F` [Compound 163], in that order: 100 to 1000 nM and 7.4 nM.
For `CNc1nccc(-c2sc(N3CCC(F)(F)CC3)nc2-c2cccc(NS(=O)(=O)c3c(F)cccc3F)c2F)n1` [Compound 164], in that order: 100 to 1000 nM and 25.4 nM.
`CNc1nccc(-c2sc(NCC(F)(F)F)nc2-c2cccc(NS(=O)(=O)c3c(F)cccc3F)c2F)n1` [Compound 165]: the IC50 was 100 to 1000 nM against LCK protein and 9.9 nM at CSK protein.
Take `CNc1nccc(-c2sc(N3CCCCC3)nc2-c2cccc(NS(=O)(=O)c3c(Cl)cccc3Cl)c2F)n1` [Compound 166]: the IC50 is 100 to 1000 nM on LCK protein and 13.5 nM at CSK protein.
For `Cc1ccc(F)c(S(=O)(=O)Nc2cccc(-c3nc(-c4cncc(F)c4)sc3-c3ccnc(NCCO)n3)c2F)c1F` [Compound 167], in that order: > 1000 nM and 15.9 nM.
For `CNc1nccc(-c2sc(N3CC(F)(F)C3)nc2-c2cccc(NS(=O)(=O)c3c(F)cccc3F)c2F)n1` [Compound 168], the IC50 is 100 to 1000 nM at LCK protein and 12.7 nM at CSK protein.
For `Cc1ccc(F)c(S(=O)(=O)Nc2cccc(-c3nc(-c4cncc(F)c4)sc3-c3ccnc(NC4CC4)n3)c2F)c1F` [Compound 169], in that order: > 1000 nM and 9.1 nM.
For `O=S(=O)(Nc1cccc(-c2nc(-c3cncc(F)c3)sc2-c2ccnc(NC3CC3)n2)c1F)c1c(F)ccc(Cl)c1F` [Compound 171], in that order: > 1000 nM and 5.6 nM.
Take `O=S(=O)(Nc1cccc(-c2nc(-c3cncc(F)c3)sc2-c2ccnc(NCCO)n2)c1F)c1c(F)ccc(Cl)c1F` [Compound 172]: the IC50 against LCK protein was > 1000 nM; at CSK protein, 5.4 nM.
`Cc1ccc(-c2nc(-c3cccc(NS(=O)(=O)c4c(F)ccc(C)c4F)c3F)c(-c3ccnc(NC4CC4)n3)s2)nn1` [Compound 173]: the IC50 against LCK protein was > 1000 nM; on CSK protein it was 10.3 nM.
For `Cc1ccc(-c2nc(-c3cccc(NS(=O)(=O)c4c(F)ccc(C)c4F)c3F)c(-c3ccnc(NCCO)n3)s2)nn1` [Compound 174], in that order: > 1000 nM and 17.5 nM.
As for `Cc1ccc(-c2nc(-c3cccc(NS(=O)(=O)c4c(Cl)ccc(C)c4Cl)c3F)c(-c3ccnc(NC4CC4)n3)s2)nn1` [Compound 175], the results for the IC50 on LCK protein and at CSK protein were > 1000 nM and 6.5 nM, respectively.
For `Cc1ccc(F)c(S(=O)(=O)Nc2cccc(-c3nc(N4CCCCC4)sc3-c3ccnc(NC4CC4)n3)c2F)c1F` [Compound 176], in that order: > 1000 nM and 10.2 nM.
For `CNc1nccc(-c2sc(N3CCCCC3)nc2-c2cccc(NS(=O)(=O)c3c(Cl)ccc(C)c3Cl)c2F)n1` [Compound 177], in that order: > 1000 nM and 14.1 nM.
For `Cc1ccc(Cl)c(S(=O)(=O)Nc2cccc(-c3nc(N4CCCCC4)sc3-c3ccnc(NCCO)n3)c2F)c1Cl` [Compound 178], in that order: > 1000 nM and 7.5 nM.
With `Cc1ccc(Cl)c(S(=O)(=O)Nc2cccc(-c3nc(N4CCCCC4)sc3-c3ccnc(NC4CC4)n3)c2F)c1Cl` [Compound 179], the results for the IC50 against LCK protein and at CSK protein were > 1000 nM and 6.2 nM, respectively.
Consider `CNc1nccc(-c2sc(N(C)C)nc2-c2cccc(NS(=O)(=O)c3c(F)ccc(C)c3F)c2F)n1` [Compound 180], for which the results for the IC50 against LCK protein and against CSK protein were > 1000 nM and 13 nM, respectively.
For `CNc1nccc(-c2sc(N(C)CC(F)(F)F)nc2-c2cccc(NS(=O)(=O)c3c(F)cccc3F)c2F)n1` [Compound 181], in that order: 100 to 1000 nM and 7.8 nM.
On to `CNc1nccc(-c2sc(N(C)C)nc2-c2cccc(NS(=O)(=O)c3c(Cl)ccc(C)c3Cl)c2F)n1` [Compound 182], for which the IC50 on LCK protein was > 1000 nM; against CSK protein, 8.3 nM.
For `Cc1ccc(F)c(S(=O)(=O)Nc2cccc(-c3nc(N(C)C)sc3-c3ccnc(NC4CC4)n3)c2F)c1F` [Compound 183], in that order: > 1000 nM and 11.2 nM.
For `O=S(=O)(Nc1cccc(-c2nc(N3CCCC3)sc2-c2ccnc(NC3CC3)n2)c1F)c1c(F)ccc(Cl)c1F` [Compound 184], in that order: > 1000 nM and 5.2 nM.
Turning to `O=S(=O)(Nc1cccc(-c2nc(N3CCCCC3)sc2-c2ccnc(NC3CC3)n2)c1F)c1c(F)ccc(Cl)c1F` [Compound 185], the values for the IC50 at LCK protein and on CSK protein were > 1000 nM and 4.9 nM, respectively.
On to `O=S(=O)(Nc1cccc(-c2nc(N3CCC3)sc2-c2ccnc(NC3CC3)n2)c1F)c1c(F)ccc(Cl)c1F` [Compound 186], for which the values for the IC50 on LCK protein and on CSK protein were > 1000 nM and 4.1 nM, respectively.
`CN(C)c1nc(-c2cccc(NS(=O)(=O)c3c(F)ccc(Cl)c3F)c2F)c(-c2ccnc(NC3CC3)n2)s1` [Compound 187]: the values for the IC50 against LCK protein and against CSK protein were > 1000 nM and 7.3 nM, respectively.
For `CC(C)(C)c1nc(-c2cccc(NS(=O)(=O)c3c(F)ccc(Cl)c3F)c2F)c(-c2ccnc(NC3CC3)n2)s1` [Compound 188], in that order: > 1000 nM and 11.4 nM.
For `CNc1nccc(-c2sc(N3CCC(F)(F)CC3)nc2-c2cccc(NS(=O)(=O)c3c(F)ccc(C)c3F)c2F)n1` [Compound 189], in that order: > 1000 nM and 18.5 nM.
For `Nc1nccc(-c2sc(-c3ccccc3)nc2-c2cccc(NS(=O)(=O)c3c(F)cccc3F)c2F)n1` [compound 2], in that order: > 1000 nM and 43.3 nM.
Regarding `O=S(=O)(Nc1cccc(-c2nc(-c3ccccc3)sc2-c2ccnc(Nc3ccc(N4CCOCC4)nc3)n2)c1F)c1c(F)cccc1F` [compound 3], the IC50 was < 100 nM on LCK protein and 13.4 nM against CSK protein.
On to `Nc1ncc(-c2nc(-c3cccc(NS(=O)(=O)c4c(F)cccc4F)c3F)c(-c3ccnc(N)n3)s2)cn1` [compound 6], for which the IC50 at LCK protein is 100 to 1000 nM; on CSK protein it was 19.8 nM.
For `CCOc1ncc(-c2nc(-c3cccc(NS(=O)(=O)c4c(F)cccc4F)c3F)c(-c3ccnc(N)n3)s2)cn1` [compound 7], in that order: > 1000 nM and 306 nM.
`Nc1nccc(-c2sc(-c3ccccc3)nc2-c2cncc(NS(=O)(=O)c3c(F)cccc3F)c2)n1` [compound 25]: the IC50 was > 1000 nM against LCK protein and 237 nM against CSK protein.
For `COc1ccc(-c2nc(-c3cccc(NS(=O)(=O)c4c(F)cccc4F)c3F)c(-c3ccnc(N)n3)s2)cn1` [compound 27], in that order: 100 to 1000 nM and 26.9 nM.
For `Nc1nccc(-c2sc(-c3ccc(=O)[nH]c3)nc2-c2cccc(NS(=O)(=O)c3c(F)cccc3F)c2F)n1` [compound 28], in that order: > 1000 nM and 63.3 nM.
For `CNc1nccc(-c2sc(-c3ccc(F)cn3)nc2-c2cccc(NS(=O)(=O)c3c(F)cccc3F)c2F)n1` [compound 34], in that order: > 1000 nM and 42.9 nM.
Regarding `Cc1ccc(F)c(S(=O)(=O)Nc2cccc(-c3nc(-c4ccccc4)sc3-c3ccnc(N)n3)c2F)c1F` [compound 36], the IC50 was > 1000 nM on LCK protein and 22.3 nM on CSK protein.
For `O=S(=O)(Nc1cccc(-c2nc(-c3ccccc3)sc2-c2ccnc(Nc3cncnc3)n2)c1F)c1c(F)cccc1F` [compound 38], in that order: 100 to 1000 nM and 14.9 nM.
On to `Nc1nccc(-c2sc(-c3cnccn3)nc2-c2cccc(NS(=O)(=O)c3c(F)cccc3F)c2F)n1` [compound 39], for which the values for the IC50 against LCK protein and on CSK protein were > 1000 nM and 33.9 nM, respectively.
For `CNC(=O)N[C@@H](C)CNc1nccc(-c2sc(-c3ccccc3)nc2-c2cccc(NS(=O)(=O)c3c(F)cccc3F)c2F)n1` [compound 45], the IC50 was > 1000 nM at LCK protein and 41.3 nM against CSK protein.
As for `Nc1nccc(-c2sc(-c3cncc(C4CC4)c3)nc2-c2cccc(NS(=O)(=O)c3c(F)cccc3F)c2F)n1` [compound 48], the IC50 is > 1000 nM at LCK protein and 75.8 nM against CSK protein.
